According to BigSolDB 2.1:

COc1ccc(C(=O)O)cc1
solubility (mole fraction)
Conditions | 273.15 K | 278.15 K | 283.15 K | 288.15 K | 293.15 K | 298.15 K | 303.15 K | 308.15 K | 313.15 K | 318.15 K
in acetonitrile | 0.00105 | 0.00122 | 0.00156 | 0.00194 | 0.00231 | 0.00281 | 0.00351 | 0.00419 | 0.00492 | 0.00603
in chloroform | 0.00116 | 0.00135 | 0.00173 | 0.0021 | 0.00251 | 0.00299 | 0.00383 | 0.0045 | 0.00538 | 0.00637
in ethanol | 0.00549 | 0.00653 | 0.00757 | 0.00887 | 0.0101 | 0.0118 | 0.0136 | 0.0163 | 0.0188 | 0.0221
in ethyl acetate | 0.0053 | 0.00601 | 0.00728 | 0.00853 | 0.00954 | 0.0112 | 0.0128 | 0.0142 | 0.0167 | 0.0207
in isopropanol | 0.00377 | 0.00489 | 0.00597 | 0.00722 | 0.00872 | 0.0105 | 0.0127 | 0.0152 | 0.0176 | 0.0211
in methanol | 0.00454 | 0.00526 | 0.00632 | 0.00752 | 0.00857 | 0.0102 | 0.0117 | 0.0138 | 0.0161 | 0.0193
in methyl acetate | 0.00527 | 0.00611 | 0.0073 | 0.00849 | 0.00968 | 0.0112 | 0.0131 | 0.0153 | 0.0176 | 0.0213
in n-propanol | 0.00455 | 0.00527 | 0.00631 | 0.00754 | 0.00895 | 0.0106 | 0.0127 | 0.0149 | 0.0174 | 0.0201
